{"source": "PubChem BioAssay AID1259409", "about": "(Chemical Carcinogenesis Research Information System (CCRIS), 2018)", "origin": "cited, not measured here", "test_system": "rodent chemically induced tumor inhibition, incidence and multiplicity", "assay": "CCRIS tumor inhibitor studies"}
{"smiles": "S=C=Nc1cc2ccccc2c2ccccc12", "values": [{"measurement": "outcome", "setting": "Carcinogen: BENZO[A]PYRENE, 50-32-8, Dose [Inhibitor]: 0, 5 UMOL IN ACETONE 4 HR PRIOR TO CARCINOGEN DOSE (STUDY DURATION: 20 WK), Route [Inhibitor]: DERMAL, Species: MOUSE, Strain/Sex: STRAIN-A/FEMALE, Target Tissue: Type of Lesion: SKIN: TUMOR, Dose [Carcinogen]: 0.1 UMOL IN ACETONE ONCE, Promoter: 12-O-TETRADECANOYLPHORBOL-13-ACETATE, 16561-29-8", "result": "85%, 95%, -12%, not significant at 15 wk; 95%, 95%, 0%, not significant at 20 wk"}]}
{"smiles": "CNC[C@H](O)c1ccc(O)c(O)c1", "values": [{"measurement": "tumour outcome (control, treated, inhibition, significance)", "setting": "Carcinogen: 4-(METHYLNITROSAMINO)-1-(3-PYRIDLY)-1-BUTANONE [64091-91-4], Dose [Inhibitor]: 1 MG/KG BW 3X/WK FOR 31 WK BEGINNING 1 WK POST LAST CARCINOGEN DOSE (STUDY DURATION: 52 WK), Route [Inhibitor]: SUBCUTANEOUS, Species: HAMSTER, Strain/Sex: SYRIAN/MALE, Target Tissue: Type of Lesion: LUNG: TUMOR, Dose [Carcinogen]: 10 MG/KG BW 3X/WK FOR 20 WK (STUDY DURATION: 52 WK), Promoter: NONE", "result": "12/15 (80.0%), 15/15 (100.0%), -25%, not calculated"}, {"measurement": "tumour outcome (control, treated, inhibition, significance)", "setting": "Carcinogen: 4-(METHYLNITROSAMINO)-1-(3-PYRIDLY)-1-BUTANONE [64091-91-4], Dose [Inhibitor]: 1 MG/KG BW 3X/WK FOR 31 WK BEGINNING 1 WK POST LAST CARCINOGEN DOSE (STUDY DURATION: 52 WK), Route [Inhibitor]: SUBCUTANEOUS, Species: HAMSTER, Strain/Sex: SYRIAN/MALE, Target Tissue: Type of Lesion: NASAL CAVITY: TUMOR, Dose [Carcinogen]: 10 MG/KG BW 3X/WK FOR 20 WK (STUDY DURATION: 52 WK), Promoter: NONE", "result": "4/15 (26.7%), 3/15 (20.0%), 25%, not calculated"}]}
{"smiles": "Cn1cnc2c1c(=O)[nH]c(=O)n2C", "values": [{"measurement": "tumour outcome (control, treated, inhibition, significance)", "setting": "Carcinogen: URETHANE, 51-79-6, Dose [Inhibitor]: 0.05 UMOL/G BW GIVEN AS 7 INJECTIONS 1/6 HR FOR 36 HR AFTER CARCINOGEN TREATMENT FOLLOWED BY 5 MO OBSERVATION PERIOD (ST, Route [Inhibitor]: INTRAPERITONEAL, Species: MOUSE, Strain/Sex: ICR/FEMALE, Target Tissue: Type of Lesion: LUNG: PAPILLARY ADENOMA, Dose [Carcinogen]: 0.1 MG/G BW ONCE AT 25 D OF AGE, Promoter: NONE USED", "result": "31/59 (53%), 11/56 (20%), 62%, p<0.001"}]}
{"smiles": "CCCC(=O)C1=C(O)C(Cc2c(O)c(C)c(OC)c(C(=O)CCC)c2O)=C(O)C(C)(C)C1=O", "values": [{"measurement": "tumour outcome (control, treated, inhibition, significance)", "setting": "Carcinogen: 7,12-DIMETHYLBENZ[A]ANTHRACENE [57-97-6], Dose [Inhibitor]: 85 NMOL/G IN 0.1 ML ACETONE 2X/WK FOR 20 WK 1 HR PRIOR TO EACH PROMOTER DOSE BEGINNING 1 WK POST LAST CARCINOGEN DOSE (S, Route [Inhibitor]: DERMAL, Species: MOUSE, Strain/Sex: ICR/FEMALE, Target Tissue: Type of Lesion: SKIN: PAPILLOMA, Dose [Carcinogen]: 390 NMOL IN 0.1 ML ACETONE ONCE (STUDY DURATION: 21 WK), Promoter: 12-O-TETRADECANOYL-13-ACETATE [16561-29-8]", "result": "100%, 85%, 15%, not calculated"}]}
{"smiles": "C[N+](C)(C)CCO", "values": [{"measurement": "tumour outcome (control, treated, inhibition, significance)", "setting": "Carcinogen: 3'-METHYL-4-DIMETHYLAMINOAZOBENZENE, 55-80-1, Dose [Inhibitor]: 0.1% IN DIET DAILY FOR 4 WK STARTING AFTER 4 WK OF CARCINOGEN TREATMENT (STUDY DURATION: 20 WK), Route [Inhibitor]: ORAL, Species: RAT, Target Tissue: Type of Lesion: LIVER: TUMOR, Dose [Carcinogen]: 0.064% IN DIET DAILY FOR 8 WK 4 WK BEFORE AND ANOTHER 4 WK AFTER AGENT TREATMENT, Promoter: NONE USED", "result": "7/9 (78%), 9/12 (75%), 4%, not calculated"}, {"measurement": "tumour outcome (control, treated, inhibition, significance)", "setting": "Carcinogen: DIETHYLNITROSAMINE, 55-18-5, Dose [Inhibitor]: 0, 1% IN DIET BEGINNING 1 WK POST CARCINOGEN DOSE (STUDY DURATION: 52 WK), Route [Inhibitor]: ORAL, Species: MOUSE, Strain/Sex: C3H/MALE, Target Tissue: Type of Lesion: LIVER: ADENOMA, Dose [Carcinogen]: 150 MG/KG ONCE, Promoter: PHENOBARBITAL, 50-06-6", "result": "16%, 11%, 31%, not calculated"}, {"measurement": "tumour outcome (control, treated, inhibition, significance)", "setting": "Carcinogen: DIETHYLNITROSAMINE, 55-18-5, Dose [Inhibitor]: 0, 1% IN DIET BEGINNING 1 WK POST CARCINOGEN DOSE (STUDY DURATION: 52 WK), Route [Inhibitor]: ORAL, Species: MOUSE, Strain/Sex: C3H/MALE, Target Tissue: Type of Lesion: LIVER: CARCINOMA, Dose [Carcinogen]: 150 MG/KG ONCE, Promoter: PHENOBARBITAL, 50-06-6", "result": "74%, 72%, 3%, not calculated"}, {"measurement": "tumour outcome (control, treated, inhibition, significance)", "setting": "Carcinogen: DIETHYLNITROSAMINE, 55-18-5, Dose [Inhibitor]: 0, 1% IN DIET BEGINNING 1 WK POST CARCINOGEN DOSE (STUDY DURATION: 52 WK), Route [Inhibitor]: ORAL, Species: MOUSE, Strain/Sex: C3H/MALE, Target Tissue: Type of Lesion: LUNG: ADENOMA OR ADENOCARCINOMA, Dose [Carcinogen]: 150 MG/KG ONCE, Promoter: NONE USED", "result": "6/14 (43%), 13/24 (54%), -26%, not calculated"}, {"measurement": "tumour outcome (control, treated, inhibition, significance)", "setting": "Carcinogen: DIETHYLNITROSAMINE, 55-18-5, Dose [Inhibitor]: 0, 1% IN DIET BEGINNING 1 WK POST CARCINOGEN DOSE (STUDY DURATION: 52 WK), Route [Inhibitor]: ORAL, Species: MOUSE, Strain/Sex: C3H/MALE, Target Tissue: Type of Lesion: LUNG: ADENOMA OR ADENOCARCINOMA, Dose [Carcinogen]: 150 MG/KG ONCE, Promoter: PHENOBARBITAL, 50-06-6", "result": "7/19 (37%), 4/18 (22%), 41%, not calculated"}, {"measurement": "tumour outcome (control, treated, inhibition, significance)", "setting": "Carcinogen: DIETHYLNITROSAMINE, 55-18-5, Dose [Inhibitor]: 0, 1% IN DIET BEGINNING 1 WK PRIOR TO POST CARCINOGEN DOSE (STUDY DURATION: 52 WK), Route [Inhibitor]: ORAL, Species: MOUSE, Strain/Sex: C3H/MALE, Target Tissue: Type of Lesion: LIVER: ADENOMA, Dose [Carcinogen]: 150 MG/KG ONCE, Promoter: NONE USED", "result": "14%, 21%, -50%, not calculated"}, {"measurement": "tumour outcome (control, treated, inhibition, significance)", "setting": "Carcinogen: ETHIONINE, 13073-35-3, Dose [Inhibitor]: 2.1 MMOL/100 G DIET DAILY FOR 8 MO ADMINISTERED SIMULTANEOUSLY WITH CARCINOGEN FOLLOWED BY 2 MO ON BASAL DIET (STUDY DUR, Route [Inhibitor]: ORAL, Species: RAT, Strain/Sex: WISTAR/MALE, FEMALE, Target Tissue: Type of Lesion: LIVER: CARCINOMA, Dose [Carcinogen]: 0.25% OF DIET DAILY FOR 8 MO, Promoter: NONE USED", "result": "9/10 (90%), 5/9 (56%), 38%, not calculated"}, {"measurement": "tumour outcome (control, treated, inhibition, significance)", "setting": "Carcinogen: ETHIONINE, 13073-35-3, Dose [Inhibitor]: 4.2 MMOL/100 G DIET DAILY FOR 8 MO ADMINISTERED SIMULTANEOUSLY WITH CARCINOGEN FOLLOWED BY 4 MO ON BASAL DIET (STUDY DUR, Route [Inhibitor]: ORAL, Species: RAT, Strain/Sex: WISTAR/MALE, Target Tissue: Type of Lesion: LIVER: CARCINOMA, Dose [Carcinogen]: 0.25% OF DIET DAILY FOR 8 MO, Promoter: NONE USED", "result": "8/8 (100%), 6/10 (60%), 40%, not calculated"}, {"measurement": "tumour outcome (control, treated, inhibition, significance)", "setting": "Carcinogen: ETHIONINE, 13073-35-3, Dose [Inhibitor]: 5.7 MMOL/100 G DIET DAILY FOR 8 MO ADMINISTERED SIMULTANEOUSLY WITH CARCINOGEN FOLLOWED BY 4 MO ON BASAL DIET (STUDY DUR, Route [Inhibitor]: ORAL, Species: RAT, Strain/Sex: WISTAR/MALE, Target Tissue: Type of Lesion: LIVER: CARCINOMA, Dose [Carcinogen]: 0.25% OF DIET DAILY FOR 8 MO, Promoter: NONE USED", "result": "8/8 (100%), 7/10 (70%), 30%, not calculated"}]}
{"smiles": "CC(=C/C=C/C(C)=C/C=C/C=C(C)/C=C/C=C(\\C)C=C=C1C(C)(C)C[C@H](O)C[C@@]1(C)O)/C=C/[C@@]12O[C@]1(C)C[C@@H](O)CC2(C)C", "values": [{"measurement": "tumour outcome (control, treated, inhibition, significance)", "setting": "Carcinogen: 7,12-DIMETHYLBENZ[A]ANTHRACENE, 57-97-6, Dose [Inhibitor]: 0, 0.2 UG IN 0.2 ML ACETONE APPLIED TO BUCCAL POUCH 2/WK FOR 2 WK 1 HR PRIOR TO EACH PROMOTER DOSE (STUDY DURATION: 34 W, Route [Inhibitor]: MUCOUS MEMBRANE, Species: HAMSTER, Strain/Sex: SYRIAN/MALE,FEMALE, Target Tissue: Type of Lesion: BUCCAL POUCH: TUMOR, Dose [Carcinogen]: 200 NMOL IN 0.2 ML ACETONE 3/WK FOR 2 WK, Promoter: 12-O-TETRADECANOYLPHORBOL-13-ACETATE, 16561-29-8", "result": "3/6 (50%), 0/6 (0%), 100%, not calculated"}, {"measurement": "tumour outcome (control, treated, inhibition, significance)", "setting": "Carcinogen: 7,12-DIMETHYLBENZ[A]ANTHRACENE, 57-97-6, Dose [Inhibitor]: 0, 0.2 UG IN 0.2 ML ACETONE APPLIED TO BUCCAL POUCH 3/WK FOR 2 WK 1 HR PRIOR TO EACH CARCINOGEN DOSE (STUDY DURATION: 34, Route [Inhibitor]: MUCOUS MEMBRANE, Species: HAMSTER, Strain/Sex: SYRIAN/MALE,FEMALE, Target Tissue: Type of Lesion: BUCCAL POUCH: TUMOR, Dose [Carcinogen]: 200 NMOL IN 0.2 ML ACETONE 3/WK FOR 2 WK, Promoter: 12-O-TETRADECANOYLPHORBOL-13-ACETATE, 16561-29-8", "result": "3/6 (50%), 0/6 (0%), 100%, not calculated"}]}
